Legend:
Sestrin2 = biological target: T1, Sestrin2 (Homo sapiens, UniProt P58004); assay: [3H]-labeled amino acid binding to FLAG-Sestrin2 immunoprecipitated from HEK-293T cells
T1 construct: expressed in transfected cells; host or cells: HEK-293T, transient transfection of a pRK5-based cDNA plasmid, anti-FLAG immunoprecipitation
T1 sequence (P58004 1-480): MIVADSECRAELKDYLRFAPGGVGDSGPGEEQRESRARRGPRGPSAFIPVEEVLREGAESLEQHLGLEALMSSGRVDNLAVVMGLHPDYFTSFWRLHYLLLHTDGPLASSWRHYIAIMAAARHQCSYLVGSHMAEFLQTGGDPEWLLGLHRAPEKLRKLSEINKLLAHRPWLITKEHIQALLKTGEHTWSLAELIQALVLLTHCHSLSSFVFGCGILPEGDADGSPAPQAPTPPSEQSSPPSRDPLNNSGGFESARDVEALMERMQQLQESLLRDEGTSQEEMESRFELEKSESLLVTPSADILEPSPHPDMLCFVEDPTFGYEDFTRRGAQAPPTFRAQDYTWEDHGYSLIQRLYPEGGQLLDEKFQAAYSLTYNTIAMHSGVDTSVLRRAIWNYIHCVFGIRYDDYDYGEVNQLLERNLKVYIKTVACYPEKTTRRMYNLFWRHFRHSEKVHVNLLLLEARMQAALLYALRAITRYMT
Procedure: (§1) Four million HEK-293T cells were plated in a 15 cm plate four days prior to the experiment. Each plate yielded the protein for one sample. Forty-eight hours after plating, the cells were transfected via the polyethylenimine method (O. Boussif et al., PNAS (USA), 92:7297-7301 (1995)) with the pRK5-based cDNA expression plasmids indicated in the figures in the following amounts: 5 μgFLAG-Sestrin2; 12 μg of the negative control Rap2A; 5 μg WDR24; 2 μg WDR24 with 4 μg each of HA-Seh1L, HA-Sec13, HA-Mios, and HA-WDR59; 12 […] (CG11299-PD); 12 μgFLAG-Sestrin1.1; 12 μg FLAG-Sestrin1.2; 12 μg FLAG-Sestrin3; 12 μg FLAG-Sestrin2 mutants (L261A, E451A, S190A) and up to 20 μg total DNA with empty-PRK5. Forty-eight hours after transfection cells were lysed as described in Example 1. If multiple samples of the same type were represented in the experiment, the cell lysates were combined, mixed, and evenly distributed amongst the relevant tubes, to ensure equal protein amounts across samples of the same type.
Anti-FLAG immunoprecipitates were prepared as previously described, with the exception that, prior to incubation with lysates, the beads were blocked by rotating in 1 μg/μl bovine serum albumin (BSA) for 20 minutes at 4° C. and subsequently washed twice in lysis buffer. Thirty μl of the 50/50 slurry of beads in lysis buffer was added to each of the clarified cell lysates and incubated as previously described in Example 1.
For the binding assays, two tubes at a time were washed as previously indicated for immunoprecipitations. All the liquid was subsequently aspirated and a 15 μl aliquot of proteins bound to the beads was incubated for one hour on ice in cytosolic buffer (0.1% Triton, 40 mM HEPES pH 7.4, 10 mM NaCl, 150 mM KCl, 2.5 mM MgCl2) with the appropriate amount of [^3H]-labeled amino acids and unlabeled amino acids. Tubes were flicked every five minutes. At the end of one hour, the beads were briefly spun down, aspirated dry, and rapidly washed three times with binding wash buffer (0.1% Triton, 40 mM HEPES pH 7.4, 150 mM NaCl). The beads were aspirated dry again and resuspended in 85 μl of binding wash buffer. With a cut tip, each sample was mixed well and three 10 μl aliquots were separately quantified using a TriCarb® scintillation counter (PerkinElmer). This process was repeated in pairs for each sample, to ensure similar incubation and wash times for all samples analyzed across different experiments.
Amino acid affinities to Sestrin2 were determined by first normalizing the bound [^3H]-labeled amino acid concentrations across three separate binding assays performed with varying amounts of unlabeled amino acid competition. These values were plotted and fit to a hyperbolic equation ([…]) to estimate the IC50 value. Kd or Ki values were derived from the IC50 value using the equation: Kd or Ki=IC50/(1+([[^3H]Leucine])/Kd).

mTORC1 = mTORC1 signaling in HEK-293T cells (S6K1 phosphorylation immunoblot); format: cell-based, human; conditions: Homo sapiens; HEK-293T starved of leucine 50 minutes, restimulated 10 minutes; read-out: half-maximal effect on mTORC1 activity in cells
Procedure: Immunoprecipitated proteins were denatured by the addition of 50 μl of sample buffer and boiling for 5 minutes as described (Kim et al., 2002), resolved by 8%-16% SDS-PAGE, and analyzed by immunoblotting using the appropriate antibody (antibodies to phospho-T389 S6K1, S6K1, Sestrin2, mTOR, Mios and FLAG all obtained from Cell Signaling Technology; antibodies to WDR24 and WDR59 were generously provided by Jianxin Xie at Cell Signaling Technology).
(§2) In order to determine the effect of amino acids on the GATOR2-Sestrin interaction, transfected cells were incubated in amino acid free RPMI for 50 minutes and then stimulated with amino acids for 10 minutes. For glucose starvation, cells were incubated in RPMI media lacking glucose but containing amino acids and dialyzed serum for 50 minutes, followed by a 10 minute restimulation with 5 mM D-Glucose. For insulin deprivation, cells were incubated in RPMI without serum for 50 minutes and restimulated with 1 μg/ml insulin for 10 minutes. Finally, when Torin1 or Rapamycin was used, cells were incubated with 250 nM of each throughout the starvation and restimulation period.

Sestrin1 = assay: [3H]-leucine binding to FLAG-Sestrin1 immunoprecipitated from HEK-293T cells; design: species or system human; conditions: FLAG-tagged protein from HEK-293T
Procedure: as §1, with “If multiple samples of the same type were represented in the experiment, the cell lysates were combined, mixed, and evenly distributed amongst the relevant tubes, to ensure equal protein amounts across samples of the same type.” left out
For the binding assays, two tubes at a time were washed as previously indicated for immunoprecipitations. […] With a cut tip, each sample was mixed well and three 10 μl aliquots were separately quantified using a TriCarb® scintillation counter (PerkinElmer). This process was repeated in pairs for each sample, to ensure similar incubation and wash times for all samples analyzed across different experiments.

[1] = biological target: T2, GATOR2-Sestrin2 interaction (Homo sapiens, UniProt P58004); assay: Sestrin2-GATOR2 interaction in HEK-293T cells after starvation/restimulation (co-immunoprecipitation); format: cell-based
T2 construct: To isolate the FLAG-WDR24/endogenous-Sestrin2 complex; endogenous in cells; host or cells: HEK-293T cells stably expressing FLAG-WDR24; Sestrin2 and the other GATOR2 subunits are endogenous
T2 sequence (P58004 1-480): T1 sequence (P58004 1-480)
Procedure: as §2
HEK-293T cells stably expressing FLAG-WDR24 or the control protein FLAG-metap2 (as described in Example 1) were starved for leucine, arginine, or all amino acids for 50 minutes. In some samples, cells were re-stimulated with leucine, arginine, or all amino acids for 10 minutes and then FLAG immunoprecipitates prepared from cell lysates. Immunoprecipitates and lysates were analyzed by immunoblotting for indicated proteins. Removal of either leucine or arginine from the cell media inhibited mTORC1 signaling, as indicated by S6K1 phosphorylation, to similar extents. Strikingly, however, only leucine starvation caused Sestrin2 to bind to GATOR2 inducing the interaction as effectively as complete amino acid starvation (FIG. 9A). […] Leucine starvation and stimulation also strongly regulated the interaction of endogenous Sestrin1, but not endogenous Sestrin3, with GATOR2 (Figure not shown).

- binding of radiolabeled amino acid to Sestrin2 (Sestrin2; FLAG-Sestrin2 from HEK-293T, competed by excess unlabeled leucine): bound to Sestrin2
- Kd (Sestrin2; competition with unlabeled leucine, 10 μM 3H-leucine, three experiments): 20 ± 5 µM
- EC50 (mTORC1): 20 to 40 µM
- EC50 ([1]; HEK-293T starved of leucine 50 minutes, restimulated 10 minutes, read-out: half-maximal effect on the Sestrin2-GATOR2 interaction in cells): 20 to 40 µM
- effect of re-addition on Sestrin2 binding to GATOR2 in cells ([1]; starved 50 minutes, re-stimulated 10 minutes): rapidly reversed the binding
SMILES: CC(C)C[C@H](N)C(=O)O [leucine]
- binding of leucine to Sestrin1 (Sestrin1): to a similar extent as Sestrin2

Reference: patent US10168338B2, “Methods of identifying modulators of sestrin-gator-2 interaction for modulating mTORC1 activity” (Whitehead Institute for Biomedical Research, priority 2014, dated 2019)
